What all share (test): P450-Glo inhibition assay, recombinant CYP
Common to all, as to format: biochemical

Test [1] addresses T1, CYP2C19 (Homo sapiens, UniProt P33261).
T1 construct: recombinant CYP450, commercial (Research Institute for Liver Diseases, Shanghai); P450-Glo Screening System (Promega)

For test [2], the target named is T2, CYP1A2 (Homo sapiens, UniProt P05177).
T2 construct: recombinant CYP450, commercial (Research Institute for Liver Diseases, Shanghai); P450-Glo Screening System (Promega)
T2 sequence (P05177 2-516): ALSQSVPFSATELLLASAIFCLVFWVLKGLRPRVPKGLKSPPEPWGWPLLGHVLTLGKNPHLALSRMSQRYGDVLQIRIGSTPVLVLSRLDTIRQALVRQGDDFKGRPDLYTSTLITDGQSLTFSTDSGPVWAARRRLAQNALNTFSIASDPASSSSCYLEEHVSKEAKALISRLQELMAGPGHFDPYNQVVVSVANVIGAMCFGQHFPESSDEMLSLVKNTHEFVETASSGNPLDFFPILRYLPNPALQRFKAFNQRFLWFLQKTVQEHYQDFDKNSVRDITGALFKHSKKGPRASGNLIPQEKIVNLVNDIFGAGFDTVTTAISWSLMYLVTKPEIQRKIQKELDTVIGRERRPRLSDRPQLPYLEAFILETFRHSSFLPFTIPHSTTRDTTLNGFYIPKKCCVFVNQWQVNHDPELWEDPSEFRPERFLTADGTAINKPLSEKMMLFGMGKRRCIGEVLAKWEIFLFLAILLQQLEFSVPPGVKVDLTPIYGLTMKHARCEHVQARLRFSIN

The target of test [3] is T3, CYP2D6 (Homo sapiens, UniProt P10635).
T3 construct: recombinant CYP450, commercial (Research Institute for Liver Diseases, Shanghai); P450-Glo Screening System (Promega)

The target of test [4] is T4, CYP2C9 (Homo sapiens, UniProt P11712).
T4 construct: recombinant CYP450, commercial (Research Institute for Liver Diseases, Shanghai); P450-Glo Screening System (Promega)

The target of test [5] is T5, CYP3A4 (Homo sapiens, UniProt P08684).
T5 construct: recombinant CYP450, commercial (Research Institute for Liver Diseases, Shanghai); P450-Glo Screening System (Promega)
As to conditions: read-out: IC50 (μM) (95% Confidence Interval) / Isoimperatorin.

The mark [6] stands for this setting: read-out: IC50 (μM) (95% Confidence Interval) / Isoimperatorin.

This note sets out measurements from article PMC6102536, “A Metabolism-Based Synergy for Total Coumarin Extract of Radix Angelicae Dahuricae and Ligustrazine on Migraine Treatment in Rats” (Molecules : A Journal of Synthetic Chemistry and Natural …, 2018).

The structures appear in SMILES notation. Read-outs that look alike come from different tables or passages of the source.

T3 sequence (P10635 whole entry): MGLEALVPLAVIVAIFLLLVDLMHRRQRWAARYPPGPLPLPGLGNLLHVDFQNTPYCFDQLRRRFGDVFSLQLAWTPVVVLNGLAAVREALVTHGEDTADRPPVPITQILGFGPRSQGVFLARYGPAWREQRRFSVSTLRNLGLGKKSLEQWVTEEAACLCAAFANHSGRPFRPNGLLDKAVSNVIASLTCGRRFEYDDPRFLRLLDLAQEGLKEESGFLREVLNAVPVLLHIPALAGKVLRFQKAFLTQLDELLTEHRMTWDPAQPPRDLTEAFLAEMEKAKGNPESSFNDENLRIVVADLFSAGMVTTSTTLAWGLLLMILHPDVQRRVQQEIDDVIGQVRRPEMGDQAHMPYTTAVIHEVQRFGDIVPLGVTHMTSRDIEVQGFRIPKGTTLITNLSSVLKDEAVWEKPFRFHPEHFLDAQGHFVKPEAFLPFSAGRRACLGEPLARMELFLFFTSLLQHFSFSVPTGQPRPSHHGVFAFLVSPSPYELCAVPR
T1 sequence (P33261 whole entry): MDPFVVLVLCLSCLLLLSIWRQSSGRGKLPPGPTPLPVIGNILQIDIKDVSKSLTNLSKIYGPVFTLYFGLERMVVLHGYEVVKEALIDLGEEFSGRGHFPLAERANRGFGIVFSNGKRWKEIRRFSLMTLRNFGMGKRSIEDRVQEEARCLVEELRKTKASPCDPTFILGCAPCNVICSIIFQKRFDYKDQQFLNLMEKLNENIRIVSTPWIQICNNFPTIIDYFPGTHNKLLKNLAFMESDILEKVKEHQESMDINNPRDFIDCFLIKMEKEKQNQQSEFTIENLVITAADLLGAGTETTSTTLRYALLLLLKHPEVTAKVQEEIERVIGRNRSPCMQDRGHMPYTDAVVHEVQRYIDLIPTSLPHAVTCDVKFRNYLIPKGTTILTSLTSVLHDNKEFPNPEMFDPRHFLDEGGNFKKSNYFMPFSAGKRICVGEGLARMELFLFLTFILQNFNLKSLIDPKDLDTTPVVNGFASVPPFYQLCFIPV
T4 sequence (P11712 whole entry): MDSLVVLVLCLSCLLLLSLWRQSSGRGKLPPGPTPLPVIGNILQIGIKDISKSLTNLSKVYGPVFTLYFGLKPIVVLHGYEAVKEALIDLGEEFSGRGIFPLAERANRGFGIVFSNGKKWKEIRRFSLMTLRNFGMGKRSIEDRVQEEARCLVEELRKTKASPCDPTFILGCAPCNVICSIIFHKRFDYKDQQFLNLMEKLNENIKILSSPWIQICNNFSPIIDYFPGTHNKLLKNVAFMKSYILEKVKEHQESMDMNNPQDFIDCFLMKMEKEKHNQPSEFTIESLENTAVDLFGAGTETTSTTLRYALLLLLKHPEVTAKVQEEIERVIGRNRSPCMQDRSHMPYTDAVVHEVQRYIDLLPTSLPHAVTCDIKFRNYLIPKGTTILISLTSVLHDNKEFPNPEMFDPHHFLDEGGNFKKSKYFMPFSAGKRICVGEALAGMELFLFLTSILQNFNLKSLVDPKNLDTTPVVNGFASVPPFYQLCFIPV
T5 sequence (P08684 2-503): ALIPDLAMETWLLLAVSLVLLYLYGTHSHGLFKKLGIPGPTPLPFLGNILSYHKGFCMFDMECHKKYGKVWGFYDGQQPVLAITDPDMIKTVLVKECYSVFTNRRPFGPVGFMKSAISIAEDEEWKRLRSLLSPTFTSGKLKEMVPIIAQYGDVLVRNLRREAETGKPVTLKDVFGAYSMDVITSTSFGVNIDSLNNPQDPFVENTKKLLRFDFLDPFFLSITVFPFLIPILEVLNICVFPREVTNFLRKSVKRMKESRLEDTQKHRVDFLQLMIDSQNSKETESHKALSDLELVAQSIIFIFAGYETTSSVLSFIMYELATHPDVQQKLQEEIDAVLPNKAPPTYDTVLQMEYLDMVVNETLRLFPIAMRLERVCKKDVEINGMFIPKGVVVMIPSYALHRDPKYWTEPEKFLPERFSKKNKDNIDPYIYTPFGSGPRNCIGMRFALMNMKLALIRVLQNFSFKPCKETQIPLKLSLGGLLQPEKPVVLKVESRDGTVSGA

As for `CC(C)=CCOc1c2ccoc2cc2oc(=O)ccc12` [isoimperatorin], the IC50 in test [1] (setting [6]) was found to be 19.6 µM; in test [2] (setting [6]), 8.26 µM; in test [3] (setting [6]), 1.56 µM; in test [4] (setting [6]), 5.69 µM; in test [5], 1.47 µM.

For `CC(C)=CCOc1c2occc2cc2ccc(=O)oc12` [imperatorin], the IC50 in test [1] was 83.3 µM; in test [2], 0.08 µM; in test [3] it was 9.1 µM; in test [4], 4.81 µM.
